We go through 6 substances from US9833497B2, “Human originated EGF domain proteins and use of the same” (CHENGDU SOURCEBIO LIMITED-LIABILITY COMPANY, priority 2013, dated 2017).

Holding throughout (format): cell-based
One assay has as its system Proteus mirabilis. Put plainly: MIC against Gram-negative bacteria: Proteus mirabilis. Put shortly:
(§1)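 Two-fold serial dilutions of each purified human EGF domain protein, three replicate wells per level, were combined with bacteria at a final 5×10^5 CFU/mL in LB. Cultures were shaken at 175 rpm, 37° C. The MIC was taken as the minimum concentration preventing growth.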

The test system of the next assay is Pseudomonas aeruginosa. Put plainly: MIC against Gram-negative bacteria: Pseudomonas aeruginosa. Put shortly: as §1
Another assay concerns Proteus vulgaris. The assay is described as follows: MIC against Gram-negative bacteria: Proteus vulgaris. The gist of the method: as §1
Another assay concerns E. coli BL21. Put plainly: MIC against Gram-negative bacteria: E. coli BL21. Put shortly: as §1
A further assay has as its system Moraxella catarrhalis. The assay is described as follows: MIC against Gram-negative bacteria: Moraxella catarrhalis. Put shortly: as §1
Another assay deals with Aeromonas hydrophila. The assay is described as follows: MIC against Gram-negative bacteria: Aeromonas hydrophila. The gist of the method: as §1
The subject of the next assay is Citrobacter diversus. The assay is described as follows: MIC against Gram-negative bacteria: Citrobacter diversus. The gist of the method: as §1
For another assay, the system named is Klebsiella pneumonia. The assay is described as follows: MIC against Gram-negative bacteria: Klebsiella pneumonia. Put shortly: as §1
For a further assay, the system named is Enterobacter cloacae. Put plainly: MIC against Gram-negative bacteria: Enterobacter cloacae. Put shortly: as §1
The next assay concerns E. coli DH5α. Put plainly: Antibacterial activity: MIC and growth curve against E. coli DH5α in 96-well plate. The following applies: minimal inhibitory concentration against E. coli DH5α; 96-well plate, 5×10^5 CFU/mL, 37° C., judged after 8 h. The gist of the method: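 Log-phase DH5α (OD600 about 0.5, 37° C, 185 rpm in LB) was pelleted, resuspended in fresh LB and seeded at 5×10^5 CFU/mL with recombinant protein at 50, 25 and 12.5 μg/mL (two-fold series), in triplicate. Plates were shaken at 175 rpm, 37° C, and OD600 was read every 30 min. MIC was the lowest concentration with no growth.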

For another assay, the system named is Serratia marcescens. The assay is described as follows: MIC against Gram-negative bacteria: Serratia marcescens. Put shortly:
as §1

Where [1] appears, read: 10 h cultivation at 37° C., 5×10^5 CFU/mL, two-fold serial dilution.
Setting [2] is: P. mirabilis, 10 h cultivation at 37° C., 5×10^5 CFU/mL.
[3] abbreviates: P. aeruginosa, 10 h cultivation at 37° C., 5×10^5 CFU/mL.
Setting [4] is: P. vulgaris, 10 h cultivation at 37° C., 5×10^5 CFU/mL.
Setting [5] is: E. coli BL21, 10 h cultivation at 37° C., 5×10^5 CFU/mL.
Setting [6] is: M. catarrhalis, 10 h cultivation at 37° C., 5×10^5 CFU/mL.
Where [7] appears, read: A. hydrophila, 10 h cultivation at 37° C., 5×10^5 CFU/mL.
[8] abbreviates: C. diversus, 10 h cultivation at 37° C., 5×10^5 CFU/mL.
[9] abbreviates: K. pneumonia, 10 h cultivation at 37° C., 5×10^5 CFU/mL.
[10] abbreviates: E. cloacae, 10 h cultivation at 37° C., 5×10^5 CFU/mL.
Setting [11] is: S. marcescens, 10 h cultivation at 37° C., 5×10^5 CFU/mL.
Setting [12] is: Proteus mirabilis, 96-well plate, 5×10^5 CFU/mL, 37° C., 10 h.
Setting [13] is: Pseudomonas aeruginosa, 96-well plate, 5×10^5 CFU/mL, 37° C., 10 h.
Setting [14] is: Proteus vulgaris, 96-well plate, 5×10^5 CFU/mL, 37° C., 10 h.
The mark [15] stands for this setting: E. coli BL21, 96-well plate, 5×10^5 CFU/mL, 37° C., 10 h.
The mark [16] stands for this setting: Moraxella catarrhalis, 96-well plate, 5×10^5 CFU/mL, 37° C., 10 h.
[17] abbreviates: Aeromonas hydrophila, 96-well plate, 5×10^5 CFU/mL, 37° C., 10 h.
Setting [18] is: Citrobacter diversus, 96-well plate, 5×10^5 CFU/mL, 37° C., 10 h.
Setting [19] is: Klebsiella pneumonia, 96-well plate, 5×10^5 CFU/mL, 37° C., 10 h.
Where [20] appears, read: Enterobacter cloacae, 96-well plate, 5×10^5 CFU/mL, 37° C., 10 h.
[21] abbreviates: Serratia marcescens, 96-well plate, 5×10^5 CFU/mL, 37° C., 10 h.

For orientation: MIC means the least concentration at which growth counts as inhibited. In the case of “PRT1129 (PVTNCASSPCQNGGTCLQHTQVSYECLCKPEFTGLTCV; listed as Homo sapiens)”, the “MIC P. mirabilis” value in the assay with Proteus mirabilis (setting [1]) was 12.5 µg/mL. In addition, the “MIC P. aeruginosa” value against Pseudomonas aeruginosa (setting [1]) amounted to 50 µg/mL. In addition, in the assay on Proteus vulgaris (setting [1]), the “MIC P. vulgaris” value amounted to 12.5 µg/mL. Also, in the assay on E. coli BL21 (setting [1]), the “MIC E. coli BL21” value worked out at 12.5 µg/mL. Besides, the “MIC M. catarrhalis” value with Moraxella catarrhalis (setting [1]) turned out to be 12.5 µg/mL. Further, the “MIC A. hydrophila” value in the assay on Aeromonas hydrophila (setting [1]) amounted to 25 µg/mL. Besides, the “MIC C. diversus” value against Citrobacter diversus (setting [1]) was 12.5 µg/mL. Further, the “MIC K. pneumonia” value against Klebsiella pneumonia (setting [1]) worked out at 12.5 µg/mL. Also, the “MIC E. cloacae” value with Enterobacter cloacae (setting [1]) came to 12.5 µg/mL. Besides, in the assay with E. coli DH5α, the minimal inhibitory concentration (MIC) was 50 µg/mL. Besides, the “MIC S. marcescens” value in the assay with Serratia marcescens (setting [1]) was determined as 12.5 µg/mL.
Regarding “PRT917 (DVNECGQKPGLCRHGGTCHNEVGSYRCVCRATHTGPNCE; listed as Homo sapiens)”, the MIC was determined as 25 µg/mL with Proteus mirabilis (P. mirabilis, 10 h cultivation at 37° C.); 12.5 µg/mL with Pseudomonas aeruginosa (P. aeruginosa, 10 h cultivation at 37° C.); 25 µg/mL in the assay on Proteus vulgaris (P. vulgaris, 10 h cultivation at 37° C.); 50 µg/mL in the assay with E. coli BL21 (E. coli BL21, 10 h cultivation at 37° C.); 50 µg/mL against Moraxella catarrhalis (M. catarrhalis, 10 h cultivation at 37° C.); 25 µg/mL against Aeromonas hydrophila (A. hydrophila, 10 h cultivation at 37° C.). Further, the MIC against Citrobacter diversus (C. diversus, 10 h cultivation at 37° C.) stood at 12.5 µg/mL; against Klebsiella pneumonia (K. pneumonia, 10 h cultivation at 37° C.), 25 µg/mL; against Enterobacter cloacae (E. cloacae, 10 h cultivation at 37° C.), 50 µg/mL; in the assay on E. coli DH5α, 25 µg/mL; with Serratia marcescens (S. marcescens, 10 h cultivation at 37° C.), 25 µg/mL.
For “PRT262 (CLIHHGGCHIHAECIPTGPQQVSCSCREGYSGDGIRTC; listed as Homo sapiens)”, in the assay with Proteus mirabilis (setting [2]), the “MIC (μg/mL) P. mirabilis” value turned out to be 12.5 µg/mL. For the same substance, the “MIC (μg/mL) P. aeruginosa” value against Pseudomonas aeruginosa (setting [3]) came out at 50 µg/mL. Further, the “MIC (μg/mL) P. vulgaris” value against Proteus vulgaris (setting [4]) stood at 25 µg/mL. Besides, the “MIC (μg/mL) E. coli BL21” value in the assay on E. coli BL21 (setting [5]) came out at 25 µg/mL. Also, the “MIC (μg/mL) M. catarrhalis” value in the assay with Moraxella catarrhalis (setting [6]) is 25 µg/mL. Besides, in the assay on Aeromonas hydrophila (setting [7]), the “MIC (μg/mL) A. hydrophila” value was 25 µg/mL. For the same substance, the “MIC (μg/mL) C. diversus” value against Citrobacter diversus (setting [8]) is 50 µg/mL. The “MIC (μg/mL) K. pneumonia” value in the assay on Klebsiella pneumonia (setting [9]) came to 25 µg/mL. Moreover, in the assay with Enterobacter cloacae (setting [10]), the “MIC (μg/mL) E. cloacae” value is 12.5 µg/mL. The substance also showed an MIC in the assay on E. coli DH5α of 12.5 µg/mL. Besides, in the assay with Serratia marcescens (setting [11]), the “MIC (μg/mL) S. marcescens” value came to 12.5 µg/mL.
For the substance “PRT1497 (KPVCEPGCGAHGTCHEPNKCQCQEGWHGRHCN; listed as Homo sapiens)”, in the assay on Proteus mirabilis (setting [12]), the “MIC (μg/mL) P. mirabilis” value was 12.5 µg/mL. Besides, the “MIC (μg/mL) P. aeruginosa” value against Pseudomonas aeruginosa (setting [13]) was 12.5 µg/mL. The “MIC (μg/mL) P. vulgaris” value in the assay on Proteus vulgaris (setting [14]) is 50 µg/mL. In the assay on E. coli BL21 (setting [15]), the “MIC (μg/mL) E. coli BL21” value amounted to 25 µg/mL. Besides, in the assay on Moraxella catarrhalis (setting [16]), the “MIC (μg/mL) M. catarrhalis” value turned out to be 50 µg/mL. Also, the “MIC (μg/mL) A. hydrophila” value in the assay with Aeromonas hydrophila (setting [17]) came out at 12.5 µg/mL. Moreover, the “MIC (μg/mL) C. diversus” value against Citrobacter diversus (setting [18]) worked out at 25 µg/mL. The “MIC (μg/mL) K. pneumonia” value with Klebsiella pneumonia (setting [19]) worked out at 50 µg/mL. The “MIC (μg/mL) E. cloacae” value with Enterobacter cloacae (setting [20]) turned out to be 25 µg/mL. Moreover, the MIC against E. coli DH5α stood at 50 µg/mL. In addition, the “MIC (μg/mL) S. marcescens” value against Serratia marcescens (setting [21]) worked out at 12.5 µg/mL.
On to “PRT86 (VTNACASGPCPPHADCRDLWQTFSCTCQPGYYGPGCV; listed as Homo sapiens)”, for which, in the assay on Proteus mirabilis (setting [12]), the “MIC (μg/mL) P. mirabilis” value turned out to be 25 µg/mL. Besides, in the assay on Pseudomonas aeruginosa (setting [13]), the “MIC (μg/mL) P. aeruginosa” value came to 25 µg/mL. The “MIC (μg/mL) P. vulgaris” value with Proteus vulgaris (setting [14]) amounted to 12.5 µg/mL. In the assay with E. coli BL21 (setting [15]), the “MIC (μg/mL) E. coli BL21” value turned out to be 12.5 µg/mL. In addition, the “MIC (μg/mL) M. catarrhalis” value with Moraxella catarrhalis (setting [16]) was 12.5 µg/mL. In addition, in the assay with Aeromonas hydrophila (setting [17]), the “MIC (μg/mL) A. hydrophila” value is 12.5 µg/mL. In addition, the “MIC (μg/mL) C. diversus” value in the assay on Citrobacter diversus (setting [18]) turned out to be 25 µg/mL. In the assay with Klebsiella pneumonia (setting [19]), the “MIC (μg/mL) K. pneumonia” value was found to be 12.5 µg/mL. For the same substance, the “MIC (μg/mL) E. cloacae” value with Enterobacter cloacae (setting [20]) turned out to be 25 µg/mL. Besides, the MIC against E. coli DH5α was found to be 50 µg/mL. Moreover, the “MIC (μg/mL) S. marcescens” value in the assay on Serratia marcescens (setting [21]) is 12.5 µg/mL.
In the case of “PRT155 (APGPCAAQPCRNGGVCTSRPEPDPQHPAPAGEPGYSCTCPAGISGANCQ; listed as Homo sapiens)”, the “MIC (μg/mL) P. mirabilis” value with Proteus mirabilis (setting [2]) came out at 12.5 µg/mL. In the assay on Pseudomonas aeruginosa (setting [3]), the “MIC (μg/mL) P. aeruginosa” value stood at 12.5 µg/mL. The “MIC (μg/mL) P. vulgaris” value against Proteus vulgaris (setting [4]) stood at 25 µg/mL. Further, in the assay on E. coli BL21 (setting [5]), the “MIC (μg/mL) E. coli BL21” value was determined as 25 µg/mL. For the same substance, in the assay on Moraxella catarrhalis (setting [6]), the “MIC (μg/mL) M. catarrhalis” value was 25 µg/mL. Also, the “MIC (μg/mL) A. hydrophila” value against Aeromonas hydrophila (setting [7]) was determined as 25 µg/mL. In addition, the “MIC (μg/mL) C. diversus” value against Citrobacter diversus (setting [8]) was 12.5 µg/mL. Further, in the assay on Klebsiella pneumonia (setting [9]), the “MIC (μg/mL) K. pneumonia” value was determined as 25 µg/mL. In addition, the “MIC (μg/mL) E. cloacae” value against Enterobacter cloacae (setting [10]) was found to be 12.5 µg/mL. Moreover, the MIC against E. coli DH5α was found to be 12.5 µg/mL. The “MIC (μg/mL) S. marcescens” value in the assay with Serratia marcescens (setting [11]) was 12.5 µg/mL.
